Among the data in PubChem BioAssay (NCI) are TGI values, retold here.

Structures are written as SMILES.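 Cultured in 96-well plates, cells were exposed to test compound for 48 hours across five concentrations. TGI: concentration producing complete growth inhibition.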

One assay relates to NCI-H460 lung. In words: NCI anticancer screen, dose series, 48 h.
`O=P1(c2ccccc2)CCCCC1` came in with a TGI of more than 100 µM.

Another assay has as its system SK-MEL-5 melanoma. In words: NCI anticancer screen, dose series, 48 h.
`O=[N+]([O-])c1ccc(N2N=C(c3ccc(NCc4nc5ccccc5[nH]4)cc3)CC2c2ccco2)cc1` (stereo not drawn): the TGI is 31.9 µM.
Still for that read-out and setting: the value for `CC(=O)O/C(=C1\C[C@H]2[C@@H]3CC=C4C[C@@H](OC(C)=O)CC[C@]4(C)[C@H]3CC[C@]2(C)C1=O)C(F)(F)F` was 14.4 µM; that for `CCCN1CN(C(C(=O)N[C@@H]2C(=O)N3C2SC(C)(C)C3C(=O)O)c2ccc(O)cc2)CSC1=S` (stereo partly drawn) was more than 100 µM; that for `O=P1(c2ccccc2)CCCCC1` was more than 100 µM.

The subject of a further assay is OVCAR-4 ovarian. The assay can be described thus: NCI anticancer screen, dose series, 48 h.
Regarding `O=[N+]([O-])c1ccc(N2N=C(c3ccc(NCc4nc5ccccc5[nH]4)cc3)CC2c2ccco2)cc1` (stereo not drawn), the TGI worked out at 64.8 µM.
Still for that read-out and setting: the same measure for `CC(=O)O/C(=C1\C[C@H]2[C@@H]3CC=C4C[C@@H](OC(C)=O)CC[C@]4(C)[C@H]3CC[C@]2(C)C1=O)C(F)(F)F`: 61.4 µM.
On the same count and under the same terms, the value for `CCCN1CN(C(C(=O)N[C@@H]2C(=O)N3C2SC(C)(C)C3C(=O)O)c2ccc(O)cc2)CSC1=S` (stereo partly drawn) was more than 100 µM; that for `O=P1(c2ccccc2)CCCCC1` was more than 100 µM.

A further assay relates to SNB-19 CNS. The assay can be described thus: NCI anticancer screen, dose series, 48 h.
In turn, `O=[N+]([O-])c1ccc(N2N=C(c3ccc(NCc4nc5ccccc5[nH]4)cc3)CC2c2ccco2)cc1` (stereo not drawn) displayed a TGI of more than 100 µM.
The molecule `CC(=O)O/C(=C1\C[C@H]2[C@@H]3CC=C4C[C@@H](OC(C)=O)CC[C@]4(C)[C@H]3CC[C@]2(C)C1=O)C(F)(F)F` registered a TGI of 40.6 µM.
Still for that read-out and setting: the value for `CCCN1CN(C(C(=O)N[C@@H]2C(=O)N3C2SC(C)(C)C3C(=O)O)c2ccc(O)cc2)CSC1=S` (stereo partly drawn) was more than 100 µM; that for `O=P1(c2ccccc2)CCCCC1` was more than 100 µM.

The subject of the next assay is NCI/ADR-RES ovarian. The assay can be described thus: NCI anticancer screen, dose series, 48 h.
Turning to `CC(=O)O/C(=C1\C[C@H]2[C@@H]3CC=C4C[C@@H](OC(C)=O)CC[C@]4(C)[C@H]3CC[C@]2(C)C1=O)C(F)(F)F`, the TGI is 46.6 µM.

The next assay deals with OVCAR-3 ovarian. In words: NCI anticancer screen, dose series, 48 h.
Regarding `O=[N+]([O-])c1ccc(N2N=C(c3ccc(NCc4nc5ccccc5[nH]4)cc3)CC2c2ccco2)cc1` (stereo not drawn), the TGI was determined as 80.2 µM.
Same read-out and setting: the same measure for `CC(=O)O/C(=C1\C[C@H]2[C@@H]3CC=C4C[C@@H](OC(C)=O)CC[C@]4(C)[C@H]3CC[C@]2(C)C1=O)C(F)(F)F`: 21.2 µM.
In the case of `CCCN1CN(C(C(=O)N[C@@H]2C(=O)N3C2SC(C)(C)C3C(=O)O)c2ccc(O)cc2)CSC1=S` (stereo partly drawn), the TGI is 72.6 µM.
Regarding `O=P1(c2ccccc2)CCCCC1`, the TGI is more than 100 µM.

For the next assay, the system named is HOP-62 NSCLC. The assay can be described thus: NCI anticancer screen, dose series, 48 h.
In turn, `O=[N+]([O-])c1ccc(N2N=C(c3ccc(NCc4nc5ccccc5[nH]4)cc3)CC2c2ccco2)cc1` (stereo not drawn) yielded a TGI of more than 100 µM.
The molecule `CC(=O)O/C(=C1\C[C@H]2[C@@H]3CC=C4C[C@@H](OC(C)=O)CC[C@]4(C)[C@H]3CC[C@]2(C)C1=O)C(F)(F)F` returned a TGI of 32.8 µM.
Still for that read-out and setting: the value for `CCCN1CN(C(C(=O)N[C@@H]2C(=O)N3C2SC(C)(C)C3C(=O)O)c2ccc(O)cc2)CSC1=S` (stereo partly drawn) was more than 100 µM.
On the same count and under the same terms, the same measure for `O=P1(c2ccccc2)CCCCC1`: more than 100 µM.

The test system of a further assay is MDA-MB-231 breast. The assay can be described thus: NCI anticancer screen, dose series, 48 h.
As for `CC(=O)O/C(=C1\C[C@H]2[C@@H]3CC=C4C[C@@H](OC(C)=O)CC[C@]4(C)[C@H]3CC[C@]2(C)C1=O)C(F)(F)F`, the TGI turned out to be 27.6 µM.

A further assay relates to DLD-1 colon. In words: NCI anticancer screen, dose series, 48 h.
`O=[N+]([O-])c1ccc(N2N=C(c3ccc(NCc4nc5ccccc5[nH]4)cc3)CC2c2ccco2)cc1` (stereo not drawn): the TGI was more than 100 µM.
On the same count and under the same terms, the value for `CCCN1CN(C(C(=O)N[C@@H]2C(=O)N3C2SC(C)(C)C3C(=O)O)c2ccc(O)cc2)CSC1=S` (stereo partly drawn) was more than 100 µM; that for `O=P1(c2ccccc2)CCCCC1` was more than 100 µM.

The test system of the next assay is CAKI-1 renal. The assay can be described thus: NCI anticancer screen, dose series, 48 h.
For `O=[N+]([O-])c1ccc(N2N=C(c3ccc(NCc4nc5ccccc5[nH]4)cc3)CC2c2ccco2)cc1` (stereo not drawn), the TGI is more than 100 µM.
The same measure, in the same setting: the same measure for `CC(=O)O/C(=C1\C[C@H]2[C@@H]3CC=C4C[C@@H](OC(C)=O)CC[C@]4(C)[C@H]3CC[C@]2(C)C1=O)C(F)(F)F`: 24.3 µM; for `CCCN1CN(C(C(=O)N[C@@H]2C(=O)N3C2SC(C)(C)C3C(=O)O)c2ccc(O)cc2)CSC1=S` (stereo partly drawn): more than 100 µM.

A further assay relates to OVCAR-8 ovarian. The assay can be described thus: NCI anticancer screen, dose series, 48 h.
`O=[N+]([O-])c1ccc(N2N=C(c3ccc(NCc4nc5ccccc5[nH]4)cc3)CC2c2ccco2)cc1` (stereo not drawn): the TGI is 57.7 µM.
In turn, `CC(=O)O/C(=C1\C[C@H]2[C@@H]3CC=C4C[C@@H](OC(C)=O)CC[C@]4(C)[C@H]3CC[C@]2(C)C1=O)C(F)(F)F` gave a TGI of 16.8 µM.
Same read-out and setting: the same measure for `CCCN1CN(C(C(=O)N[C@@H]2C(=O)N3C2SC(C)(C)C3C(=O)O)c2ccc(O)cc2)CSC1=S` (stereo partly drawn): more than 100 µM.
Still for that read-out and setting: the same measure for `O=P1(c2ccccc2)CCCCC1`: more than 100 µM.

The test system of the next assay is SN12C renal. The assay can be described thus: NCI anticancer screen, dose series, 48 h.
Consider `O=[N+]([O-])c1ccc(N2N=C(c3ccc(NCc4nc5ccccc5[nH]4)cc3)CC2c2ccco2)cc1` (stereo not drawn), for which the TGI was 61.9 µM.
On the same count and under the same terms, the value for `CC(=O)O/C(=C1\C[C@H]2[C@@H]3CC=C4C[C@@H](OC(C)=O)CC[C@]4(C)[C@H]3CC[C@]2(C)C1=O)C(F)(F)F` was 24.1 µM; that for `CCCN1CN(C(C(=O)N[C@@H]2C(=O)N3C2SC(C)(C)C3C(=O)O)c2ccc(O)cc2)CSC1=S` (stereo partly drawn) was more than 100 µM; that for `O=P1(c2ccccc2)CCCCC1` was more than 100 µM.

A further assay has as its system BT-549 breast. The assay can be described thus: NCI anticancer screen, dose series, 48 h.
`CC(=O)O/C(=C1\C[C@H]2[C@@H]3CC=C4C[C@@H](OC(C)=O)CC[C@]4(C)[C@H]3CC[C@]2(C)C1=O)C(F)(F)F` came in with a TGI of 34.7 µM.

A further assay concerns SNB-78 CNS. The assay can be described thus: NCI anticancer screen, dose series, 48 h.
The molecule `O=P1(c2ccccc2)CCCCC1` gave a TGI of more than 100 µM.

Another assay deals with ACHN renal. In words: NCI anticancer screen, dose series, 48 h.
The molecule `O=[N+]([O-])c1ccc(N2N=C(c3ccc(NCc4nc5ccccc5[nH]4)cc3)CC2c2ccco2)cc1` (stereo not drawn) came in with a TGI of more than 100 µM.
Still for that read-out and setting: the same measure for `CC(=O)O/C(=C1\C[C@H]2[C@@H]3CC=C4C[C@@H](OC(C)=O)CC[C@]4(C)[C@H]3CC[C@]2(C)C1=O)C(F)(F)F`: 48 µM; for `CCCN1CN(C(C(=O)N[C@@H]2C(=O)N3C2SC(C)(C)C3C(=O)O)c2ccc(O)cc2)CSC1=S` (stereo partly drawn): more than 100 µM; for `O=P1(c2ccccc2)CCCCC1`: more than 100 µM.

For a further assay, the system named is DMS 114 small cell lung. In words: NCI anticancer screen, dose series, 48 h.
As to `O=[N+]([O-])c1ccc(N2N=C(c3ccc(NCc4nc5ccccc5[nH]4)cc3)CC2c2ccco2)cc1` (stereo not drawn), the TGI turned out to be 50.9 µM.
The same measure, in the same setting: the value for `CCCN1CN(C(C(=O)N[C@@H]2C(=O)N3C2SC(C)(C)C3C(=O)O)c2ccc(O)cc2)CSC1=S` (stereo partly drawn) was 65.3 µM; that for `O=P1(c2ccccc2)CCCCC1` was more than 100 µM.

For another assay, the system named is KM12 colon. In words: NCI anticancer screen, dose series, 48 h.
In the case of `O=[N+]([O-])c1ccc(N2N=C(c3ccc(NCc4nc5ccccc5[nH]4)cc3)CC2c2ccco2)cc1` (stereo not drawn), the TGI turned out to be 41.4 µM.
On the same count and under the same terms, the value for `CC(=O)O/C(=C1\C[C@H]2[C@@H]3CC=C4C[C@@H](OC(C)=O)CC[C@]4(C)[C@H]3CC[C@]2(C)C1=O)C(F)(F)F` was 31.8 µM.
For the molecule `CCCN1CN(C(C(=O)N[C@@H]2C(=O)N3C2SC(C)(C)C3C(=O)O)c2ccc(O)cc2)CSC1=S` (stereo partly drawn), the TGI was more than 100 µM.
On the same count and under the same terms, the value for `O=P1(c2ccccc2)CCCCC1` was more than 100 µM.

A further assay deals with SF-268 CNS. In words: NCI anticancer screen, dose series, 48 h.
The molecule `O=[N+]([O-])c1ccc(N2N=C(c3ccc(NCc4nc5ccccc5[nH]4)cc3)CC2c2ccco2)cc1` (stereo not drawn) displayed a TGI of more than 100 µM.
In turn, `CC(=O)O/C(=C1\C[C@H]2[C@@H]3CC=C4C[C@@H](OC(C)=O)CC[C@]4(C)[C@H]3CC[C@]2(C)C1=O)C(F)(F)F` displayed a TGI of 19.9 µM.
In turn, `CCCN1CN(C(C(=O)N[C@@H]2C(=O)N3C2SC(C)(C)C3C(=O)O)c2ccc(O)cc2)CSC1=S` (stereo partly drawn) displayed a TGI of more than 100 µM.
